# Source: US7383788B2, “Enhanced feeding and growth rates of aquatic animals fed an astaxanthin product derived from marigold extract” (DSM IP Assets B.V., priority 2002, dated 2008)
# What was measured:
# [1] = system: Rainbow trout; experiment: Field trial on rainbow trout in a commercial fish farm (pigmentation and growth); type: in vivo; settings: 90 ppm in feed
# Procedure: A field trial with Rainbow Trout was done to assess pigmentation and growth in a commercial fish farm. The fish were grown in concrete raceways where fish were stocked in two sections of different raceways. In one section we had the control treatment which was fed with feed containing synthetic astaxanthin at 90 ppm. […] The water temperature was constant at 16° C. throughout the test as was the flow rate at 60 1/sec. Fish were fed to satiate, feed consumed was weighed for each treatment and conversion rates calculated based on the initial and final biomass.
# [2] = system: Penaeid shrimp (Litopenaeus vannamei); experiment: Field trial on a commercial shrimp farm using several pigment sources to evaluate production; type: in vivo
# From the text: Penaeid shrimp (Litopenaeus vannamei) with an average initial weight of 0.96 gr were stocked at a density of 25.04 individuals/square meter in […]. There were three ponds for each treatment to give a total of 12 ponds. The size of the ponds differed slightly as shown in Table 3 where a summary of the yields obtained after harvesting are also presented. All ponds were fed with the same diets varying only in the type of pigment used and keeping one as a control without pigment addition. Weight of feed supplied to each pond was recorded daily and the feed conversion ratio calculated after harvesting. Culture of the shrimp was done following normal commercial procedures and doing exactly the same operations in all ponds.
structure (smiles),measurement,setting,value
"CC1=C(/C=C/C(C)=C/C=C/C(C)=C/C=C/C=C(C)/C=C/C=C(C)/C=C/C2=C(C)C(=O)[C@@H](O)CC2(C)C)C(C)(C)C[C@H](O)C1=O [Synthetic astaxanthin, astaxanthin]",Average Wt gain,[1],0.188 kg
same,Average end Wt,[1],0.337 kg
same,Conv. Ratio,[1]; based on initial and final biomass,1.56
same,average weight gain,[1]; end of feeding trial,188 grams
same,Feed consumed,[1]; fed to satiate,125.2 kg
same,Final Biomass,"[1]; fed to satiate, 16° C.",154.6 kg
same,Harvest Kg/Hect,[2]; 25 ppm pigment in feed,"1,283 Kg/Hect"
same,% Survival,"[2]; 25 ppm pigment in feed, at harvest after 92-100 days",66.5%
same,Feed Conv Ratio,"[2]; 25 ppm pigment in feed, calculated after harvesting",1.62
same,Harvest Kg,"[2]; 25 ppm pigment in feed, three ponds","18,729 Kg"
same,survival rate (in words),[2]; after harvesting,low survival rate
